Where two headings read alike, the source gives them in different places.
How the values were obtained:
[1] = target: CYP3A4 (Homo sapiens, UniProt P08684); assay: biochemical
Protocol: Histidine tagged CYP3A4 enzyme was expressed in E. coli and purified on Ni-NTA agarose column as described previously. Briefly, CYP3A4 cDNA was introduced into TOPP3 strain of E. coli by transformation and the cells were plated on LB ampicillin plate with tetracycline. The next day, a viable and isolated colony was grown in TB media for 48 h to induce CYP3A4. The cultures were harvested by centrifugation and CYP3A4 was extracted from the membrane using detergent followed by ultracentrifugation. The supernatant was loaded on a Ni-NTA agarose column for further purification. The purified enzyme was dialyzed and final preparation was stored at -80^οC until use.
The spectral change was recorded by using a UV/Vis double beam spectrophotometer (6800 UV/VIS JENWAY spectrophotometer) as described earlier. Briefly, 0.5 μM of purified CYP3A4 enzyme was incubated with 2 ml of 0.1 M HEPES buffer for 3 min and distributed equally between the sample and reference cuvettes. Depending upon the solvent used to solubilize methamphetamine or PIs, equal quantities of either methanol or water was added into the reference cuvette with final volume of the external solvent <1%. Increasing concentrations of methamphetamine was added to the sample cuvette while the same volume of solvent was added into the reference cuvette and the spectral change was recorded. For experiments involving PIs, different concentrations of PIs were added into the sample cuvette and the spectral change was recorded with a 2 min interval between each addition. […] Type I ligands displace the heme water ligand, thus shifting the iron spin equilibrium towards the high-spin form resulting in a spectrum, which is characterized by an increase in the absorbance at 390 nm (high spin) and a decrease at 420 nm (low spin). Type II ligands containing nitrogen heterocycles replace the water ligand to stabilize the low-spin form resulting in a spectrum that is characterized by an increase in the spectrum at ~430 nm and a decrease at ~400 nm. The effect of methamphetamine on the spectral binding of PIs was determined by incubating the CYP3A4 enzyme with 100 μM of methamphetamine and titrating with increasing concentrations of PIs.
The KD and δAmax were determined by fitting the curve (absorbance vs. concentration) with hyperbolic equation using non-regression analysis in sigma plot 11 (Systat Software, San Jose, CA). The p-values were determined using One way ANOVA with Dunnet’s post-hoc test and values <0.05 were considered statistically significant.

[2] = tested on: CYP3A4; settings: HLMs; for decrease in formation of hydroxy ritonavir: substrate ritonavir 2 μM
Protocol: Briefly, the metabolite formations were assessed in incubation mixtures (0.5 mL) containing 100 mM phosphate buffer (pH 7.4), HLMs (0.1 mg/mL), and 5 mM Mgcl2 [13, 14]. The incubation mixtures were pre-incubated with six different concentrations of Meth ranging from 3 μM to 1000 μM for 10 min, followed by the addition of 5 μl stock solution of PI. The entire mixture was incubated in water bath at 37°C for 15 min. […] Later, the reactions were initiated upon the addition of 100 μl of 25 mM NADPH (final concentration of 5 mM) solution to each of the tube and incubated in water bath at 37°C for 60 min. […] Then, the tubes were vortexed and centrifuged at 500 g for 10 min and supernatant was transferred into vials for analysis by LC-MS/MS.
Standard curves for each analyte with IS were generated in blank HLMs incubation mixture as described above. The carry over test was performed by injecting an extra blank following the injection of upper limit of quantitation (ULOQ) of the standard curve with an IS. The LC-MS/MS methods were developed for each analyte along with its metabolite using 3200 QTRAP LC-MS/MS system, AB Sciex. […] (Fig 1, Table 1). A source temperature of 500°C, ion spray voltage of 5500 V, curtain gas of 20, GS 1 & 2 of 50, and dwell time of 200 msec were used for the determination of all analytes. The MRM method parameters such as declustering potential (DP), entrance potential (EP), collision energy (CE), and collision cell exit potential (CXP), were listed in the Table 1 along with the MRM transitions.
All the analytes were separated on reverse phase XTerra ® MS C18 column (4.6X50mm, i.d, 3.5 μm) using a Shimadzu LC-20AD HPLC system (CA, USA). A binary gradient elution method comprising of mobile phases (acetonitrile with 0.1% formic acid and water with 0.1% formic acid) with a flow rate of 0.5 mL/min was employed. […] Data acquisition and analyses were performed using the Analyst 1.4.2 software package (Applied Biosystems, Foster City, CA, USA).

Chain of CYP3A4 (Homo sapiens, UniProt P08684) (P08684 whole entry): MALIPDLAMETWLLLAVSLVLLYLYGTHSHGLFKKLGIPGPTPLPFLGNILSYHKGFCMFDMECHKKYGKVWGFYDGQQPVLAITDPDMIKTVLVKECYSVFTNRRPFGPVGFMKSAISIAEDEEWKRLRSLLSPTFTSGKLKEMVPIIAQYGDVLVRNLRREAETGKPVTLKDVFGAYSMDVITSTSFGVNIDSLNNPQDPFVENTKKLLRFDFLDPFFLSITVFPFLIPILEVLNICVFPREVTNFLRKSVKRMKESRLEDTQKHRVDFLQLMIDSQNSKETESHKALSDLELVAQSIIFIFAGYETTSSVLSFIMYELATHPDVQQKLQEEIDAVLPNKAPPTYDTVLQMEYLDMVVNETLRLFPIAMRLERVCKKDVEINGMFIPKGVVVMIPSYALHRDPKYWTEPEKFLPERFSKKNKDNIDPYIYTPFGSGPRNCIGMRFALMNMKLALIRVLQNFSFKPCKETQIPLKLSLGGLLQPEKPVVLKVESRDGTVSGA

COC(=O)N[C@H](C(=O)N[C@@H](Cc1ccccc1)[C@@H](O)CN(Cc1ccc(-c2ccccn2)cc1)NC(=O)[C@@H](NC(=O)OC)C(C)(C)C)C(C)(C)C [Atazanavir]
δAmax ([1]; human): 0.0045 ± 0.0002

Cc1c(O)cccc1C(=O)N[C@@H](CSc1ccccc1)[C@H](O)CN1C[C@H]2CCCC[C@H]2C[C@H]1C(=O)NC(C)(C)C [Nelfinavir]
δAmax ([1]; human): 0.0068 ± 0.0001

CCC[C@@]1(CCc2ccccc2)CC(O)=C([C@H](CC)c2cccc(NS(=O)(=O)c3ccc(C(F)(F)F)cn3)c2)C(=O)O1 [Tipranavir]
δAmax ([1]; human): 0.0050 ± 0.0005

CN[C@@H](C)Cc1ccccc1 [methamphetamine]
Kd ([1]; KD, methamphetamine alone titrated with CYP3A4, hyperbolic fit): 204 ± 18 µM
spectral transition (low to high spin) with CYP3A4 ([1]; at saturating concentration of methamphetamine): approximately 20%
type of spectral change upon binding to CYP3A4 ([1]; increase in absorbance at 390 nm, decrease at 418 nm): type I
δAmax ([1]; methamphetamine alone titrated with CYP3A4, hyperbolic fit): 0.016±0.001
decrease in formation of hydroxy ritonavir ([2]; 100 μM methamphetamine): 23.3 ± 3.8%
decrease in formation of hydroxy ritonavir ([2]; 1000 μM methamphetamine): 46.2 ± 3.3%
effect on metabolism of lopinavir (lopinavir M1 formation) ([2]; methamphetamine 3 μM to 1000 μM, substrate lopinavir 10 μM): did not affect
effect on metabolism of nelfinavir M8 (decrease in substrate concentration) ([2]; methamphetamine 3 μM to 1000 μM, substrate nelfinavir M-8 1 μM): did not affect
